system: HCV 1b-377-neo replicon cells; assay: HCV replicon assay (HCV 1b-377-neo replicon cells); format: cell-based, Hepatitis C virus genotype 1b; settings: Hepatitis C virus, read-out: EC50 range against HCV 1b (Range)
Method: An HCV Replion assay was utilized in the present disclosure, and was prepared, conducted and validated as described in commonly owned PCT/US2006/022197 and in O'Boyle et. al. Antimicrob Agents Chemother. April 2005;49(4): 1346-53.
HCV 1b-377-neo replicon cells were used to test the currently described compound series as well as cells resistant to compound A due to a Y2065H mutation in NS5A (described in application PCT/US2006/022197). The compounds tested were determined to have more than 10-fold less inhibitory activity on cells resistant to compound A than wild-type cells indicating a related mechanism of action between the two compound series. Thus, the compounds of the present disclosure can be effective to inhibit the function of the HCV NS5A protein and are understood to be as effective in combinations as previously described in application PCT/US2006/022197 and commonly owned WO/04014852. Further, the compounds of the present disclosure can be effective against the HCV 1b genotype. It should also be understood that the compounds of the present disclosure can inhibit multiple genotypes of HCV. […] In one embodiment compounds of the present disclosure are active against the 1a, 1b, 2a, 2b, 3a, 4a, and 5a genotypes.

Structure (SMILES)	EC50 [nM]
CO[C@@H](C(=O)N1CCC[C@H]1c1ncc(-c2ccc(-c3ccc(-c4cnc([C@@H]5CCCN5C(=O)[C@H](OC)c5ccccc5)[nH]4)cn3)cc2)[nH]1)c1ccccc1 [Example 135, 5-(2-((2S)-1-((2R)-2-methoxy-2-phenylacetyl)-2-pyrrolidinyl)-1H-imidazol-5-yl)-2-(4-(2-((2S)-1-((2R)-2-methoxy-2-phenylacetyl)-2-pyrrolidinyl)-1H-imidazol-5-yl)phenyl)pyridine]	0.01 to 0.999
Cc1cc(-c2cnc([C@@H]3CCCN3C(=O)[C@@H](c3ccccc3)N(C)C)[nH]2)ccc1-c1ccc(-c2cnc([C@@H]3CCCN3C(=O)[C@@H](c3ccccc3)N(C)C)[nH]2)cn1 [Example 136, (1R)-2-((2S)-2-(5-(6-(4-(2-((2S)-1-((2R)-2-(dimethylamino)-2-phenylacetyl)-2-pyrrolidinyl)-1H-imidazol-5-yl)-2-methylphenyl)-3-pyridinyl)-1H-imidazol-2-yl)-1-pyrrolidinyl)-N,N-dimethyl-2-oxo-1-phenylethanamine]	0.01 to 0.999
COC(=O)N[C@@H](C(=O)N1CCC[C@H]1c1ncc(-c2ccc(-c3ccc(-c4cnc([C@@H]5CCCN5C(=O)[C@H](NC(=O)OC)c5ccccc5)[nH]4)cc3C)nc2)[nH]1)c1ccccc1 [Example 138, methyl((1R)-2-((2S)-2-(5-(6-(4-(2-((2S)-1-((2R)-2-((methoxycarbonyl)amino)-2-phenylacetyl)-2-pyrrolidinyl)-1H-imidazol-5-yl)-2-methylphenyl)-3-pyridinyl)-1H-imidazol-2-yl)-1-pyrrolidinyl)-2-oxo-1-phenylethyl)carbamate]	0.01 to 0.999
CC(=O)N[C@@H](C(=O)N1CCC[C@H]1c1ncc(-c2ccc(-c3ccc(-c4cnc([C@@H]5CCCN5C(=O)[C@H](NC(C)=O)c5ccccc5)[nH]4)cn3)cc2)[nH]1)c1ccccc1 [Example 139, N-((1R)-2-((2S)-2-(5-(6-(4-(2-((2S)-1-((2R)-2-acetamido-2-phenylacetyl)-2-pyrrolidinyl)-1H-imidazol-5-yl)phenyl)-3-pyridinyl)-1H-imidazol-2-yl)-1-pyrrolidinyl)-2-oxo-1-phenylethyl)acetamide]	0.01 to 0.999
COC(=O)N[C@@H](C(=O)N1CCC[C@H]1c1ncc(-c2ccc(-c3ccc(-c4cnc([C@@H]5CCCN5C(=O)[C@@H](c5ccccc5)N(C)C)[nH]4)cn3)cc2)[nH]1)c1ccccc1 [Example 140, methyl((1R)-2-((2S)-2-(5-(4-(5-(2-((2S)-1-((2R)-2-(dimethylamino)-2-phenylacetyl)-2-pyrrolidinyl)-1H-imidazol-5-yl)-2-pyridinyl)phenyl)-1H-imidazol-2-yl)-1-pyrrolidinyl)-2-oxo-1-phenylethyl)carbamate]	0.01 to 0.999
COC(=O)N[C@@H](C(=O)N1CCC[C@H]1c1ncc(-c2ccc(-c3ccc(-c4cnc([C@@H]5CCCN5C(=O)[C@H]5CCCO5)[nH]4)cn3)cc2)[nH]1)c1ccccc1 [Example 141, methyl ((1R)-2-oxo-1-phenyl-2-((2S)-2-(5-(4-(5-(2-((2S)-1-((2R)-tetrahydro-2-furanylcarbonyl)-2-pyrrolidinyl)-1H-imidazol-5-yl)-2-pyridinyl)phenyl)-1H-imidazol-2-yl)-1-pyrrolidinyl)ethyl)carbamate]	0.01 to 0.999
COC(=O)N[C@@H](C(=O)N1CCC[C@H]1c1ncc(-c2ccc(-c3ccc(-c4cnc([C@@H]5CCCN5C(=O)C5CCN(C)CC5)[nH]4)cn3)cc2)[nH]1)c1ccccc1 [Example 142, methyl ((1R)-2-((2S)-2-(5-(4-(5-(2-((2S)-1-((1-methyl-4-piperidinyl)carbonyl)-2-pyrrolidinyl)-1H-imidazol-5-yl)-2-pyridinyl)phenyl)-1H-imidazol-2-yl)-1-pyrrolidinyl)-2-oxo-1-phenylethyl)carbamate]	1 to 99
COC(=O)N[C@@H](C(=O)N1CCC[C@H]1c1ncc(-c2ccc(-c3ccc(-c4cnc([C@@H]5CCCN5C(=O)Cc5cccnc5)[nH]4)cn3)cc2)[nH]1)c1ccccc1 [Example 143, methyl ((1R)-2-oxo-1-phenyl-2-((2S)-2-(5-(4-(5-(2-((2S)-1-(3-pyridinylacetyl)-2-pyrrolidinyl)-1H-imidazol-5-yl)-2-pyridinyl)phenyl)-1H-imidazol-2-yl)-1-pyrrolidinyl)ethyl)carbamate]	0.01 to 0.999
COC(=O)N[C@@H](C(=O)N1CCC[C@H]1c1ncc(-c2ccc(-c3ccc(-c4cnc([C@@H]5CCCN5C(=O)N5CCOCC5)[nH]4)cn3)cc2)[nH]1)c1ccccc1 [Example 144, methyl((1R)-2-((2S)-2-(5-(4-(5-(2-((2S)-1-(4-morpholinylcarbonyl)-2-pyrrolidinyl)-1H-imidazol-5-yl)-2-pyridinyl)phenyl)-1H-imidazol-2-yl)-1-pyrrolidinyl)-2-oxo-1-phenylethyl)carbamate]	0.01 to 0.999
COC(=O)N[C@@H](C(=O)N1CCC[C@H]1c1ncc(-c2ccc(-c3ccc(-c4cnc([C@@H]5CCCN5C(=O)[C@H](NC(=O)OC)c5ccccc5)[nH]4)cn3)nc2)[nH]1)c1ccccc1 [Example 145, dimethyl(2,2′-bipyridine-5,5′-diylbis(1H-imidazole-5,2-diyl(2S)-2,1-pyrrolidinediyl((1R)-2-oxo-1-phenyl-2,1-ethanediyl)))biscarbamate]	0.01 to 0.999
CN(C)[C@@H](C(=O)N1CCC[C@H]1c1ncc(-c2ccc(-c3ccc(-c4cnc([C@@H]5CCCN5C(=O)[C@@H](c5ccccc5)N(C)C)[nH]4)nc3)cc2)[nH]1)c1ccccc1 [Example 146, (1R)-2-((2S)-2-(5-(5-(4-(2-((2S)-1-((2R)-2-(dimethylamino)-2-phenylacetyl)-2-pyrrolidinyl)-1H-imidazol-5-yl)phenyl)-2-pyridinyl)-1H-imidazol-2-yl)-1-pyrrolidinyl)-N,N-dimethyl-2-oxo-1-phenylethanamine]	0.01 to 0.999
COC(=O)N[C@@H](C(=O)N1CCC[C@H]1c1ncc(-c2ccc(-c3ccc(-c4cnc([C@@H]5CCCN5C(=O)[C@H](NC(=O)OC)c5ccccc5)[nH]4)nc3)cc2)[nH]1)c1ccccc1 [Example 147, methyl((1R)-2-((2S)-2-(5-(5-(4-(2-((2S)-1-((2R)-2-((methoxycarbonyl)amino)-2-phenylacetyl)-2-pyrrolidinyl)-1H-imidazol-5-yl)phenyl)-2-pyridinyl)-1H-imidazol-2-yl)-1-pyrrolidinyl)-2-oxo-1-phenylethyl)carbamate]	0.01 to 0.999
CN(C)[C@@H](C(=O)N1CSC[C@H]1c1ncc(-c2ccc(-c3ccc(-c4cnc([C@@H]5CSCN5C(=O)[C@@H](c5ccccc5)N(C)C)[nH]4)cc3)cc2)[nH]1)c1ccccc1 [Example 148, (1R,1′R)-2,2′-(4,4′-biphenyldiylbis(1H-imidazole-5,2-diyl(4R)-1,3-thiazolidine-4,3-diyl))bis(N,N-dimethyl-2-oxo-1-phenylethanamine)]	1 to 99
CN(C)[C@@H](C(=O)N1CCC[C@H]1c1ncc(-c2ccc(-c3ncc(-c4cnc([C@@H]5CCCN5C(=O)[C@@H](c5ccccc5)N(C)C)[nH]4)cn3)cc2)[nH]1)c1ccccc1 [Example 152j-1, (1R)-2-((2S)-2-(5-(2-(4-(2-((2S)-1-((2R)-2-(dimethylamino)-2-phenylacetyl)-2-pyrrolidinyl)-1H-imidazol-5-yl)phenyl)-5-pyrimidinyl)-1H-imidazol-2-yl)-1-pyrrolidinyl)-N,N-dimethyl-2-oxo-1-phenylethanamine]	1 to 99
